Assay results reported in paper PMC11183015, “In vivo stable ^211At-labeled prostate-specific membrane antigen-targeted tracer using a neopentyl glycol structure” (EJNMMI Radiopharmacy and Chemistry, 2024).
Marks after values point to notes of the source that are not given here.

Columns and labels:
Type in all cases: in vivo, mouse
[1] = Biodistribution of radioactivity in normal mice
Description: Six-week-old male ddY mice were injected via the tail vein with each radiolabeled PSMA derivative. Animals were sacrificed and the organs were dissected at 10 min, 1 h, 3 h, and 6 h after injection. Metabolic cages were used for housing normal mice. The tissues of interest were excised and weighed, and the radioactivity counts in each tissue were determined using an auto-well gamma counter. Each value was expressed as the mean percent injected dose/g tissue ± SD for a group of 3–5 animals, except those for the stomach, intestine, and thyroid.

[2] = Analysis of radiometabolites in urine by RP-HPLC; details: normal ddY mice, urine up to 6 h after injection
Description: Urine samples were collected from 6-week-old ddY mice 6 h after injection of each ^125I-labeled PSMA derivative (100 µL, 370 kBq). After ethanol precipitation of proteins, the urine samples were filtered through a polycarbonate membrane (0.45 µm) and analyzed by RP-HPLC (System 2).

[3] = tested on: LNCaP cell xenografts; assay: Biodistribution of radioactivity in tumor-bearing mice; details: for Radioactivity in Intestine / Radioactivity in Neck / Radioactivity in Stomach: LNCaP tumor-bearing BALB/c-nu/nu mice; for Radioactivity in Blood / Radioactivity in Bone / Radioactivity in Heart / Radioactivity in Kidney / Radioactivity in Liver / Radioactivity in Lung / Radioactivity in Muscle / Radioactivity in Pancreas / Radioactivity in Spleen / Radioactivity in Tumor: male, BALB/c-nu/nu, mouse, in vivo
Description: Animal studies were conducted in accordance with the institutional guidelines approved by the Chiba University Animal Care Committee (Permit No. 4–183). Five-week-old male ddY mice and BALB/c-nu/nu mice were purchased from Japan SLC Inc. (Hamamatsu, Japan). LNCaP cells (5.0 × 10^6 cells) were suspended in 100 μL of PBS and Matrigel (BD Biosciences, Franklin Lakes, NJ, USA) in a 1:1 ratio. Tumor xenograft models were prepared via subcutaneous injection of this LNCaP cell suspension into BALB/c nude mice.
Biodistribution studies were conducted using male BALB/c-nu/nu mice bearing LNCaP cell xenografts at 1 and 3 h postinjection of [^211At]At-NpG-D-PSMA (100 µL, 37 kBq) and 1 and 6 h postinjection of ^125I-labeled PSMA derivative (100 µL, 11.1 kBq). In the blocking study, [^125I]I-NpG-D-PSMA was coinjected with 2-PMPA (50 mg/kg weight) into tumor-bearing mice via the tail vein. At 1 h postinjection, the mice were sacrificed. The tissues of interest were excised and weighed, and the radioactivity counts in each tissue were determined using an auto-well gamma counter. Each value was expressed as the mean percent injected dose/g tissue ± SD for a group of 3–5 animals, except those for the stomach, intestine, and thyroid.

[4] = normal ddY mice, i.v., 6 h, metabolic cages

O=C(O)CCC(NC(=O)NC(CCCCNC(=O)C(Cc1ccc2ccccc2c1)NC(=O)C(CCC(=O)O)NC(=O)C(CCC(=O)O)NC(=O)COCC(CO)(CO)C[125I])C(=O)O)C(=O)O [[^125I]I-NpG-L-PSMA]
Radioactivity in Blood ([1]; normal ddY mice, i.v., 10 min): 1.48 ± 0.20^b %ID/g
Radioactivity in Bone ([1]; normal ddY mice, i.v., 10 min): 0.68 ± 0.18^a %ID/g
Radioactivity in Heart ([1]; normal ddY mice, i.v., 10 min): 1.12 ± 0.24 %ID/g
Radioactivity in Intestine ([1]; normal ddY mice, i.v., 10 min): 2.49 ± 0.66 %ID
Radioactivity in Kidney ([1]; normal ddY mice, i.v., 10 min): 92.3 ± 11.0^b %ID/g
Radioactivity in Liver ([1]; normal ddY mice, i.v., 10 min): 1.64 ± 0.33^a %ID/g
Radioactivity in Lung ([1]; normal ddY mice, i.v., 10 min): 2.15 ± 0.49^a %ID/g
Radioactivity in Muscle ([1]; normal ddY mice, i.v., 10 min): 0.62 ± 0.18^a %ID/g
Radioactivity in Neck ([1]; normal ddY mice, i.v., 10 min): 0.34 ± 0.09^a %ID
Radioactivity in Pancreas ([1]; normal ddY mice, i.v., 10 min): 0.80 ± 0.16 %ID/g
Radioactivity in Spleen ([1]; normal ddY mice, i.v., 10 min): 2.23 ± 1.10 %ID/g
Radioactivity in Stomach ([1]; normal ddY mice, i.v., 10 min): 0.33 ± 0.09 %ID
Radioactivity in Blood ([1]; normal ddY mice, i.v., 1 h): 0.26 ±0.01 %ID/g
Radioactivity in Bone ([1]; normal ddY mice, i.v., 1 h): 0.36 ± 0.43 %ID/g
Radioactivity in Heart ([1]; normal ddY mice, i.v., 1 h): 0.60 ± 0.37 %ID/g
Radioactivity in Intestine ([1]; normal ddY mice, i.v., 1 h): 3.40 ± 0.86^a %ID
Radioactivity in Kidney ([1]; normal ddY mice, i.v., 1 h): 113.6 ±3.86^ab %ID/g
Radioactivity in Liver ([1]; normal ddY mice, i.v., 1 h): 0.99 ± 0.14^ab %ID/g
Radioactivity in Lung ([1]; normal ddY mice, i.v., 1 h): 0.69 ± 0.16^ab %ID/g
Radioactivity in Muscle ([1]; normal ddY mice, i.v., 1 h): 0.14 ± 0.03 %ID/g
Radioactivity in Neck ([1]; normal ddY mice, i.v., 1 h): 0.07 ± 0.03^a %ID
Radioactivity in Pancreas ([1]; normal ddY mice, i.v., 1 h): 1.40 ± 1.78 %ID/g
Radioactivity in Spleen ([1]; normal ddY mice, i.v., 1 h): 1.05 ± 0.19^ab %ID/g
Radioactivity in Stomach ([1]; normal ddY mice, i.v., 1 h): 0.35 ± 0.30 %ID
Radioactivity in Blood ([1]; normal ddY mice, i.v., 3 h): 0.04 ± 0.01 %ID/g
Radioactivity in Bone ([1]; normal ddY mice, i.v., 3 h): 0.09 ± 0.04 %ID/g
Radioactivity in Heart ([1]; normal ddY mice, i.v., 3 h): 0.06 ± 0.01 %ID/g
Radioactivity in Intestine ([1]; normal ddY mice, i.v., 3 h): 4.96 ± 0.17^ab %ID
Radioactivity in Kidney ([1]; normal ddY mice, i.v., 3 h): 38.6 ± 11.9^a %ID/g
Radioactivity in Liver ([1]; normal ddY mice, i.v., 3 h): 0.43 ± 0.01^ab %ID/g
Radioactivity in Lung ([1]; normal ddY mice, i.v., 3 h): 0.21 ± 0.03^ab %ID/g
Radioactivity in Muscle ([1]; normal ddY mice, i.v., 3 h): 0.10 ± 0.05 %ID/g
Radioactivity in Neck ([1]; normal ddY mice, i.v., 3 h): 0.01 ± 0.00 %ID
Radioactivity in Pancreas ([1]; normal ddY mice, i.v., 3 h): 0.12 ± 0.03 %ID/g
Radioactivity in Spleen ([1]; normal ddY mice, i.v., 3 h): 0.22 ± 0.07^ab %ID/g
Radioactivity in Stomach ([1]; normal ddY mice, i.v., 3 h): 0.08 ± 0.02^b %ID
Radioactivity in Blood ([1]; normal ddY mice, i.v., 6 h): 0.03 ± 0.02 %ID/g
Radioactivity in Bone ([1]; normal ddY mice, i.v., 6 h): 0.05 ± 0.01 %ID/g
Radioactivity in Heart ([1]; normal ddY mice, i.v., 6 h): 0.05 ± 0.05 %ID/g
Radioactivity in Intestine ([1]; normal ddY mice, i.v., 6 h): 4.60 ± 2.56 %ID
Radioactivity in Kidney ([1]; normal ddY mice, i.v., 6 h): 21.2 ± 9.70^a %ID/g
Radioactivity in Liver ([1]; normal ddY mice, i.v., 6 h): 0.53 ±0.02^ab %ID/g
Radioactivity in Lung ([1]; normal ddY mice, i.v., 6 h): 0.09 ± 0.03^a %ID/g
Radioactivity in Muscle ([1]; normal ddY mice, i.v., 6 h): 0.05 ± 0.01 %ID/g
Radioactivity in Neck ([1]; normal ddY mice, i.v., 6 h): 0.02 ± 0.01 %ID
Radioactivity in Pancreas ([1]; normal ddY mice, i.v., 6 h): 0.07 ± 0.04 %ID/g
Radioactivity in Spleen ([1]; normal ddY mice, i.v., 6 h): 0.11 ± 0.03^a %ID/g
Radioactivity in Stomach ([1]; normal ddY mice, i.v., 6 h): 0.23 ± 0.29 %ID
Radioactivity in Feces [1, 4]: 0.45 ± 0.48 %ID
Radioactivity in Urine [1, 4]: 53.3 ± 5.56 %ID
Accumulation in the stomach and thyroid (stability against deiodination) ([1]; normal mice): low accumulation
Form of radioactivity excreted in urine [2]: intact [^125I]I-NpG-L-PSMA and as radiometabolites
Radioactivity in Intestine ([3]; 1 h): 2.52 ± 0.29^a %ID
Radioactivity in Neck ([3]; 1 h): 0.45 ± 0.13^a %ID
Radioactivity in Stomach ([3]; 1 h): 0.23 ± 0.04 %ID
Radioactivity in Intestine ([3]; 6 h): 1.87 ± 0.41 %ID
Radioactivity in Neck ([3]; 6 h): 3.19 ± 1.28 %ID
Radioactivity in Stomach ([3]; 6 h): 0.15 ± 0.07 %ID
Radioactivity in Blood ([3]; 1 h): 0.66 ± 0.18 %ID/g
Radioactivity in Bone ([3]; 1 h): 0.47 ± 0.12^a %ID/g
Radioactivity in Heart ([3]; 1 h): 1.62 ± 0.87 %ID/g
Radioactivity in Kidney ([3]; 1 h): 223 ± 5.91^a %ID/g
Radioactivity in Liver ([3]; 1 h): 1.85 ± 0.50^a %ID/g
Radioactivity in Lung ([3]; 1 h): 2.78 ± 0.93 %ID/g
Radioactivity in Muscle ([3]; 1 h): 0.64 ± 0.21^a %ID/g
Radioactivity in Pancreas ([3]; 1 h): 1.17 ± 0.38 %ID/g
Radioactivity in Spleen ([3]; 1 h): 37.0 ± 10.4 %ID/g
Radioactivity in Tumor ([3]; 1 h): 9.19 ± 1.89^a %ID/g
Radioactivity in Blood ([3]; 6 h): 0.11 ± 0.03^a %ID/g
Radioactivity in Bone ([3]; 6 h): 0.09 ± 0.02 %ID/g
Radioactivity in Heart ([3]; 6 h): 0.22 ± 0.06^a %ID/g
Radioactivity in Kidney ([3]; 6 h): 226 ± 30.0 %ID/g
Radioactivity in Liver ([3]; 6 h): 0.44 ± 0.02^a %ID/g
Radioactivity in Lung ([3]; 6 h): 0.59 ± 0.12^a %ID/g
Radioactivity in Muscle ([3]; 6 h): 0.27 ± 0.31 %ID/g
Radioactivity in Pancreas ([3]; 6 h): 0.26 ± 0.08^a %ID/g
Radioactivity in Spleen ([3]; 6 h): 4.55 ± 1.18^a %ID/g
Radioactivity in Tumor ([3]; 6 h): 11.0 ± 2.68^a %ID/g
